From US20150337013A1, “NOVEL ANTIBACTERIAL AGENTS FOR THE TREATMENT OF GRAM POSITIVE INFECTIONS” (priority 2008, published 2015)
Read-outs that look alike come from different tables or passages of the source.

Assays:
[1] = system: Staphylococcus aureus SAU.399 (ATCC 43300), Methicillin and Oxacillin Resistant; type: cell-based
In short: (§1)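 CLSI M7-A7 broth microdilution, modified: MHB + 50 mg/L Ca, 5×10^5 bacteria/well, 2-fold dilutions, DMSO ≤1%, 18-20 h, 37° C, 200 rpm. Growth = visible turbidity or OD600 ≥0.1; MIC = lowest conc. without visible turbidity, μg/mL.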

[2] = system: Enterococcus faecalis EFS.201 (ATCC 49452); type: cell-based
In short: as §1

[3] = system: Staphylococcus aureus SAU.278, Daptomycin resistant mutant (D10); type: cell-based; conditions: MHBc with 50 mg/L calcium, 18-20 hours at 37° C.
In short: as §1

[4] = system: Enterococcus faecium EFM.14 (ATCC 6569); type: cell-based
In short: as §1

[5] = system: Staphylococcus aureus SAU.42 (ATCC 29213); type: cell-based
In short: as §1

[6] = system: Enterococcus faecium EFM.384, Daptomycin resistant mutant (14-A); type: cell-based; conditions: MHBc with 50 mg/L calcium, 18-20 hours at 37° C.
In short: as §1

[7] = system: Enterococcus faecalis EFS.312, Daptomycin resistant mutant (EFA); type: cell-based; conditions: MHBc with 50 mg/L calcium, 18-20 hours at 37° C.
In short: as §1

[8] = system: Clostridium difficile
[9] = MHBc with 50 mg/L calcium, 18-20 hours at 37° C.

SMILES | Sa399 MIC [1, 9] [µg/mL] | Efs201 MIC [2, 9] [µg/mL] | Sa278 MIC [3] [µg/mL] | Efm14 MIC [4, 9] [µg/mL] | Sa42 MIC [5, 9] [µg/mL] | Efm384 MIC [6] [µg/mL] | Efs312 MIC [7] [µg/mL] | C. diff MIC90 [8] [µg/mL] | Sa399 MIC ([1]; ATCC 43300) [µg/mL] | Efs201 MIC ([2]; ATCC 49452) [µg/mL] | Efm14 MIC ([4]; ATCC 6569) [µg/mL] | Sa42 MIC ([5]; ATCC 29213) [µg/mL]
CCCCCCCCOc1ccc(-c2ccc(C(=O)N[C@@H](Cc3c[nH]c4ccccc34)C(=O)N[C@H](CC(N)=O)C(=O)N[C@@H](CC(=O)O)C(=O)N[C@@H]3C(=O)NCC(=O)N[C@@H](CCCN)C(=O)N[C@@H](CC(=O)O)C(=O)N[C@H](C)C(=O)N[C@@H](CC(=O)O)C(=O)NCC(=O)N[C@H](CO)C(=O)N[C@@H]([C@H](C)CC(=O)O)C(=O)N[C@@H](CC(=O)c4ccccc4N)C(=O)O[C@@H]3C)cc2)cc1 [Compound 64] | 0.25 | 0.5 | 0.5 | 1 | 0.125 | 4 | 16 | 1 | – | – | – | –
CC(C)CCCCCCCCCCC(=O)N[C@@H](Cc1c[nH]c2ccccc12)C(=O)N[C@H](CC(N)=O)C(=O)N[C@@H](CC(=O)O)C(=O)N[C@@H]1C(=O)NCC(=O)N[C@@H](CCCN)C(=O)N[C@@H](CC(=O)O)C(=O)N[C@H](C)C(=O)N[C@@H](CC(=O)O)C(=O)NCC(=O)N[C@H](CO)C(=O)N[C@@H]([C@H](C)CC(=O)O)C(=O)N[C@@H](CC(=O)c2ccccc2N)C(=O)O[C@@H]1C [Compound 11] | – | – | 0.5 | – | – | 4 | 16 | 1 | 0.25 | 1 | 1 | 0.125
C[C@H](CC(=O)O)[C@@H]1NC(=O)[C@@H](CO)NC(=O)CNC(=O)[C@H](CC(=O)O)NC(=O)[C@@H](C)NC(=O)[C@H](CC(=O)O)NC(=O)[C@H](CCCN)NC(=O)CNC(=O)[C@@H](NC(=O)[C@H](CC(=O)O)NC(=O)[C@@H](CC(N)=O)NC(=O)[C@H](Cc2c[nH]c3ccccc23)NC(=O)CCCCCC2CCCCC2)[C@@H](C)OC(=O)[C@H](CC(=O)c2ccccc2N)NC1=O [Compound 26] | – | – | 2 | – | – | 16 | >32 | 2 | 0.5 | 1 | 2 | 1
CCCC1CCC(c2ccc(C(=O)N[C@@H](Cc3c[nH]c4ccccc34)C(=O)N[C@H](CC(N)=O)C(=O)N[C@@H](CC(=O)O)C(=O)N[C@@H]3C(=O)NCC(=O)N[C@@H](CCCN)C(=O)N[C@@H](CC(=O)O)C(=O)N[C@H](C)C(=O)N[C@@H](CC(=O)O)C(=O)NCC(=O)N[C@H](CO)C(=O)N[C@@H]([C@H](C)CC(=O)O)C(=O)N[C@@H](CC(=O)c4ccccc4N)C(=O)O[C@@H]3C)cc2)CC1 (single isomer, unassigned) [53 isomer II] | – | – | 2 | – | – | 4 | 4 | 1 | 1 | 1 | 1 | 0.5
CCCCCCCc1csc(C(=O)N[C@@H](Cc2c[nH]c3ccccc23)C(=O)N[C@H](CC(N)=O)C(=O)N[C@@H](CC(=O)O)C(=O)N[C@@H]2C(=O)NCC(=O)N[C@@H](CCCN)C(=O)N[C@@H](CC(=O)O)C(=O)N[C@H](C)C(=O)N[C@@H](CC(=O)O)C(=O)NCC(=O)N[C@H](CO)C(=O)N[C@@H]([C@H](C)CC(=O)O)C(=O)N[C@@H](CC(=O)c3ccccc3N)C(=O)O[C@@H]2C)c1 [Compound 43, N-(4-heptylthiophene-2-carbonyl)-L-tryptophyl-D-asparaginyl-L-α-aspartyl-L-threonylglycyl-L-ornithyl-L-α-aspartyl-D-alanyl-L-α-aspartylglycyl-D-seryl-(3R)-3-methyl-L-α-glutamyl-(αS)-α,2-diamino-γ-oxobenzenebutanoic acid (13→4)-lactone] | – | – | 1 | – | – | 16 | 32 | 2 | 0.5 | 1 | 1 | 0.125
CCCCCCCOc1ccc(-c2ccc(C(=O)N[C@@H](Cc3c[nH]c4ccccc34)C(=O)N[C@H](CC(N)=O)C(=O)N[C@@H](CC(=O)O)C(=O)N[C@@H]3C(=O)NCC(=O)N[C@@H](CCCN)C(=O)N[C@@H](CC(=O)O)C(=O)N[C@H](C)C(=O)N[C@@H](CC(=O)O)C(=O)NCC(=O)N[C@H](CO)C(=O)N[C@@H]([C@H](C)CC(=O)O)C(=O)N[C@@H](CC(=O)c4ccccc4N)C(=O)O[C@@H]3C)cc2)cc1 [Compound 63] | 0.25 | 0.5 | 0.25 | 1 | 0.25 | 1 | 4 | 2 | – | – | – | –
CCCCCCCCCCCCC(=O)N[C@@H](Cc1c[nH]c2ccccc12)C(=O)N[C@H](CC(N)=O)C(=O)N[C@@H](CC(=O)O)C(=O)N[C@@H]1C(=O)NCC(=O)N[C@@H](CCCN)C(=O)N[C@@H](CC(=O)O)C(=O)N[C@H](C)C(=O)N[C@@H](CC(=O)O)C(=O)NCC(=O)N[C@H](CO)C(=O)N[C@@H]([C@H](C)CC(=O)O)C(=O)N[C@@H](CC(=O)c2ccccc2N)C(=O)O[C@@H]1C [Compound 5] | – | – | 2 | – | – | 8 | 8 | 8 | 0.5 | 0.5 | 0.5 | 0.5
CCCCCCCCCC(C)NC(=O)N[C@@H](Cc1c[nH]c2ccccc12)C(=O)N[C@H](CC(N)=O)C(=O)N[C@@H](CC(=O)O)C(=O)N[C@@H]1C(=O)NCC(=O)N[C@@H](CCCN)C(=O)N[C@@H](CC(=O)O)C(=O)N[C@H](C)C(=O)N[C@@H](CC(=O)O)C(=O)NCC(=O)N[C@H](CO)C(=O)N[C@@H]([C@H](C)CC(=O)O)C(=O)N[C@@H](CC(=O)c2ccccc2N)C(=O)O[C@@H]1C (single isomer, unassigned) [14 isomer I] | – | – | 1 | – | – | 8 | 32 | 1.0 | 0.5 | 1 | 0.5 | 0.25
C[C@H](CC(=O)O)[C@@H]1NC(=O)[C@@H](CO)NC(=O)CNC(=O)[C@H](CC(=O)O)NC(=O)[C@@H](C)NC(=O)[C@H](CC(=O)O)NC(=O)[C@H](CCCN)NC(=O)CNC(=O)[C@@H](NC(=O)[C@H](CC(=O)O)NC(=O)[C@@H](CC(N)=O)NC(=O)[C@H](Cc2c[nH]c3ccccc23)NC(=O)CCCCCCC2CCCCC2)[C@@H](C)OC(=O)[C@H](CC(=O)c2ccccc2N)NC1=O [Compound 25] | – | – | 1 | – | – | 8 | 16 | 1 | 0.5 | 0.5 | 1 | 0.5
